± gives the expanded uncertainty stated by the source.
Assay: wn = mass fraction of the nth substance listed
Conditions: 101 kPa, Crystal, Hot wire method

[Pb] [lead] + [Cd]
thermal conductivity [W/m/K]
Conditions	323.15 K	373.15 K	423.15 K	473.15 K	513.15 K
w2 = 0.033	38.36 ± 0.58	35.94 ± 0.54	30.79 ± 0.46	30.37 ± 0.46	27.68 ± 0.42
w2 = 0.174	62.77 ± 0.94	53.14 ± 0.8	44.49 ± 0.67	39.96 ± 0.6	37.25 ± 0.56
w2 = 0.9975	105.18 ± 1.6	86.06 ± 1.3	71.06 ± 1.1	69.38 ± 1	61.22 ± 0.92

[Zn] [zinc] + [Sn]
thermal conductivity [W/m/K]
Conditions	323.15 K	373.1 K	423.15 K	463.15 K
w1 = 0.01	78.49 ± 1.2	73.59 ± 1.1	66.89 ± 1	71.08 ± 1.1
w1 = 0.089	86.39 ± 1.3	81.42 ± 1.2	79.04 ± 1.2	75.42 ± 1.1
